Measured values as given in publication PMC12735969, “Regulation of NAD^+ Homeostasis by SsNrtR in Streptococcus Sobrinus: A Critical Determinant of Its Cariogenic Potential” (Pathogens, 2025).

Target: T1, SsNrtR (Streptococcus sobrinus, UniProt A0ABM6W328)
T1 construct: gene DK182_01300; full-length, hexahistidine tag, pET28b-nrtR, E. coli BL21(DE3), Ni-NTA and Superdex 200; about 28 kDa; dimer and oligomers
Assay: EMSA, release from pnuC/pncB promoter DNA
Assay type: binding
Conditions: ADPR 0-1.0 mM; 200 bp pnuC/pncB promoter probe; allosteric anti-repressor

Nc1ncnc2c1ncn2[C@@H]1O[C@H](COP(=O)(O)OP(=O)(O)OC[C@H]2OC(O)[C@H](O)[C@@H]2O)[C@@H](O)[C@H]1O (stereo partly shown) [ADP-ribose] was tested, and the “EMSA, release from pnuC/pncB promoter DNA” value was “the interaction between SsNrtR and the pnuC/pncB DNA probe was disrupted by ADPR”.
